From PubChem BioAssay (NCI) come the findings set out here.

Some test systems named below: MDA-N; LXFL 529 NSCLC; DMS 273 small cell lung; DMS 114 small cell lung; KM20L2 colon; HOP-18 NSCLC; XF 498 CNS; RXF-631 renal.
What all share (assay): inhibition of tumour cell growth, NCI panel, 48 h

“And” between values parts separate entries of the source, which are not always exact repeats. Equal entries are not always repeated.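 Following 48 hours of exposure in 96-well plates, responses at five concentrations were used to interpolate endpoints linearly. GI50 is the concentration that inhibits growth by half. TGI: concentration producing complete growth inhibition.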

On to `Clc1ccc2c(NC3CCC(N4CCCCC4)CC3)ccnc2c1` (stereo not given), for which the TGI with MDA-N came to 33.2 µM.
Take `CC1C(c2ccccc2)N(C)C(c2ccccc2)C(C)C1(O)c1ccccc1` (stereo not given): the TGI in the assay on LXFL 529 NSCLC, in the assay on DMS 273 small cell lung, in the assay with DMS 114 small cell lung and in the assay with KM20L2 colon was > 100 µM throughout.
Regarding `C/C(=N\N=C(N)N)C(CN1CCOCC1)C(c1ccccc1)c1c(O)c2ccccc2oc1=O` (stereo not given), the TGI in the assay on LXFL 529 NSCLC, with HOP-18 NSCLC, in the assay on DMS 273 small cell lung, in the assay on DMS 114 small cell lung, with KM20L2 colon and with XF 498 CNS was > 100 µM throughout.
As to `COc1cc(/C=C2\[C@@H]3NC(Cc4c(OC)c(C)c(OC)c(OC)c43)C(=O)N2Cc2ccccc2)c(OC)c(C)c1OC`, the TGI is > 100 µM in the assay with LXFL 529 NSCLC; > 100 µM with HOP-18 NSCLC; > 100 µM in the assay with DMS 273 small cell lung; > 100 µM in the assay with DMS 114 small cell lung; 96.3 µM with KM20L2 colon; > 100 µM with RXF-631 renal.
As to `C[C@]12CCC(=O)C=C1C[C@@H](O)[C@@H]1[C@@H]2CC[C@@]2(C)[C@H]1CC[C@]2(C)O`, the TGI with MDA-N was > 100 µM.
`CCC(=O)OCOc1ccc(/C=C2\CCC(CN(C)C)C2=O)cc1` (stereo not given): the TGI in the assay on LXFL 529 NSCLC is 9.27 µM; in the assay with HOP-18 NSCLC it was 28.8 µM; in the assay with DMS 273 small cell lung, 15.2 µM; with DMS 114 small cell lung it was 56.4 µM; in the assay on MDA-N, 16.5 µM; with KM20L2 colon it was 32.6 µM. For the same compound, the TGI is > 61.2 µM in the assay on RXF-631 renal and 4.15 µM with XF 498 CNS.
As for `O=C(CC12C3C4C1C1C2C3C41CC(=O)NO)NO` (stereo not given), the TGI in the assay with LXFL 529 NSCLC is > 100 µM; with DMS 273 small cell lung, > 100 µM; with DMS 114 small cell lung, 60.6 µM; in the assay with KM20L2 colon, > 100 µM; in the assay on RXF-631 renal, > 100 µM; in the assay on XF 498 CNS, > 100 µM.
Turning to `OC1OCC(COc2cc(Cl)c(Cl)cc2Cl)OC1O` (stereo not given), the TGI is > 100 µM with LXFL 529 NSCLC; 90.8 µM in the assay with HOP-18 NSCLC; > 100 µM with DMS 273 small cell lung; 88.3 µM in the assay with DMS 114 small cell lung; > 100 µM in the assay on KM20L2 colon; > 100 µM with RXF-631 renal.
Take `CC1(C)CC(=O)C(CC2C(=O)CCCC2=O)C(=O)C1`: the TGI in the assay with LXFL 529 NSCLC, in the assay on HOP-18 NSCLC, with DMS 273 small cell lung, in the assay with DMS 114 small cell lung, in the assay on KM20L2 colon and in the assay with XF 498 CNS was > 100 µM throughout.
`CSc1ccc(N2C(=O)C3c4[nH]c5ccccc5c4C4CCC(C(C)(C)C)CC4C3C2=O)cc1` (stereo not given): the TGI is 47.5 µM in the assay on LXFL 529 NSCLC; 53.5 µM with HOP-18 NSCLC; 25.3 µM in the assay on DMS 273 small cell lung; 63.5 µM in the assay with DMS 114 small cell lung; > 100 µM in the assay on KM20L2 colon; > 100 µM with XF 498 CNS.
Turning to `CC1(c2ccc(F)cc2)C2C(=O)NC(=O)C1C(=O)NC2=O` (stereo not given), the TGI in the assay on LXFL 529 NSCLC, with DMS 273 small cell lung, with DMS 114 small cell lung, with KM20L2 colon and in the assay with XF 498 CNS was > 100 µM in each case.
Turning to `OC(c1cc(C(F)(F)F)nc2c(Cl)cc(Cl)cc12)C1CCCCN1` (stereo not given), in the assay on MDA-N, the TGI is > 100 µM.
Turning to `O=C1c2ccccc2C(=O)N1CC#CCO`, the TGI with LXFL 529 NSCLC, in the assay with DMS 273 small cell lung, in the assay with RXF-631 renal and in the assay with XF 498 CNS was > 100 µM throughout.
On to `CCO/C=C\C12CCCC1NC(c1ccccc1)(c1ccccc1)O2` (stereo not given), for which the TGI is 74.5 µM in the assay with LXFL 529 NSCLC, > 100 µM with DMS 273 small cell lung, 79.5 µM in the assay on DMS 114 small cell lung and 57.9 µM with KM20L2 colon.
On to `O=C(Nc1ccc(Br)cc1)C(=O)C(C(=O)c1ccc(Cl)c(Cl)c1)C1OC(=O)c2ccccc21` (stereo not given), for which the TGI with LXFL 529 NSCLC is 23.2 µM; in the assay with HOP-18 NSCLC, 77 µM; in the assay with DMS 273 small cell lung, 60 µM; with DMS 114 small cell lung it was 28.6 µM; with KM20L2 colon it was > 100 µM; in the assay on XF 498 CNS, 96.2 µM.
As for `C=CCC1(CN(C)C)CC/C(=C\c2ccc3c(c2)OCO3)C1=O` (stereo not given), the TGI was > 100 µM in the assay on LXFL 529 NSCLC; > 100 µM in the assay with HOP-18 NSCLC; > 100 µM in the assay with DMS 273 small cell lung; > 100 µM in the assay with KM20L2 colon; 78.4 µM in the assay with RXF-631 renal.
For `CCCCCCCCCCCCCCNCC(OC)OC`, the TGI in the assay on LXFL 529 NSCLC is 30 µM; in the assay with HOP-18 NSCLC, 26.4 µM; in the assay on DMS 273 small cell lung it was 33 µM; with DMS 114 small cell lung it was 29.3 µM; in the assay with KM20L2 colon, 28.8 µM; in the assay with RXF-631 renal, 31.2 µM. Also, the TGI in the assay on XF 498 CNS is 31.7 µM.
On to `C=CC1=C(C)C(/C=c2\[nH]/c(=C/c3[nH]c(CC4NC(=O)C(C)/C4=C\C)c(C)c3CCC(=O)O)c(CC(=O)O)c2C)=NC1=O` (stereo not given), for which the TGI in the assay with LXFL 529 NSCLC, in the assay with HOP-18 NSCLC, in the assay on DMS 114 small cell lung, with KM20L2 colon, in the assay on RXF-631 renal and with XF 498 CNS was > 100 µM each time.
Consider `CCC(O)CCCCCCCCCCCCCCC(=O)O` (stereo not given), for which the TGI in the assay with LXFL 529 NSCLC, in the assay on HOP-18 NSCLC, in the assay with DMS 273 small cell lung, with DMS 114 small cell lung, in the assay with RXF-631 renal and with XF 498 CNS was > 100 µM throughout.
For `COc1cc(C2c3cc4c(cc3[C@@H](NC3CCN(Cc5ccccc5)CC3)C3COC(=O)[C@H]23)OCO4)cc(OC)c1O` (stereo not given in full), the GI50 in the assay on LXFL 529 NSCLC was 1.1 µM and 0.438 µM; with DMS 273 small cell lung, 0.114 µM and 0.0219 µM; in the assay on DMS 114 small cell lung, 0.169 µM and 0.0639 µM; with XF 498 CNS, 0.377 µM and 0.132 µM. Besides, the TGI with LXFL 529 NSCLC was 4.4 µM and 2.72 µM; in the assay on DMS 273 small cell lung, 0.558 µM and 0.18 µM; with DMS 114 small cell lung, 1.96 µM and 0.316 µM; in the assay with KM20L2 colon, 3.28 µM and 0.841 µM; with XF 498 CNS it was 2.34 µM and 1.4 µM.
Compound `O=C(Nc1ccc(Br)c2ccccc12)c1ccc2ccccc2c1O` came in with a TGI in the assay with MDA-N of 15.6 µM.
On to `CC(=O)C(CN1C(=O)c2ccccc2C1=O)C(C)=O`, for which the TGI with MDA-N is > 100 µM.
For `Oc1c(C(Nc2ccccn2)c2ccccc2)ccc2cccnc12` (stereo not given), in the assay with MDA-N, the TGI was > 100 µM.
`CC1=C(CCC(C)CO)O[C@H]2C[C@H]3[C@@H]4CC[C@H]5C[C@@H](O)CC[C@]5(C)[C@H]4CC(=O)[C@]3(C)[C@@H]12` (stereo not given in full) displayed a TGI with MDA-N of 45.4 µM.
Same read-out and setting: then `CC12CCC(C1)C(C)(C)C2OC(=O)c1ccccc1N` (stereo not given), with 29.7 µM; and `[N-]=[N+]=C(C(=O)CN1CCCC1=O)S(=O)(=O)c1ccccc1`, with > 100 µM.
In the case of `Cc1cc(-c2ccccc2)nc(Nc2cc3ccccc3[nH]2)n1`, the TGI in the assay with LXFL 529 NSCLC, in the assay with DMS 114 small cell lung, with KM20L2 colon and in the assay on XF 498 CNS was > 100 µM in each case.
`Cc1ccc2ccccc2c1CSc1nc(N)nc2c1ncn2CC(C)C`: the TGI with MDA-N was > 100 µM.
Still for that read-out and setting: then `C=C1C(=O)O[C@@H]2/C=C(/C)[C@@H](OC(C)=O)C[C@@H](O)/C(C)=C\[C@@H](OC(=O)[C@]3(C)O[C@@H]3C)[C@@H]12`, with 30.1 µM.
In the case of `CCCCCCCCCC1CC(=O)OC2=C1C(=O)CCC2` (stereo not given), the TGI in the assay on LXFL 529 NSCLC, in the assay with HOP-18 NSCLC, in the assay with DMS 273 small cell lung, in the assay with DMS 114 small cell lung, in the assay on KM20L2 colon and in the assay on RXF-631 renal was > 100 µM throughout. Besides, the TGI with XF 498 CNS was > 100 µM.
Regarding `Cc1cc(N(CCC#N)S(=O)(=O)c2ccccc2)ccc1C=Nc1ccc(C(=O)O)cc1`, the TGI in the assay with LXFL 529 NSCLC is 3.52 µM; in the assay on HOP-18 NSCLC, 16.6 µM; in the assay on DMS 273 small cell lung, 17.5 µM; in the assay with DMS 114 small cell lung, 10.1 µM; with MDA-N it was > 100 µM; in the assay on KM20L2 colon it was 28.6 µM. The compound also came in with a TGI in the assay on XF 498 CNS of 22.5 µM.
For the compound `CC1(C)OCC2OC(n3cnc4c(N)nc(Cl)nc43)C(OS(C)(=O)=O)C2O1` (stereo not given), in the assay on MDA-N, the TGI is > 100 µM.
